Reference: patent EP0410762A1, “Naphthyridine derivatives” (DowElanco, priority 1989, dated 1991)

Key:
Type in all cases: in vivo
[1] = test system: Erysiphe graminis tritici; experiment: Greenhouse Test 1, foliar spray fungicide screen: powdery mildew; conditions: disease control rating, host wheat, 400 ppm (+++ at 100 ppm)
Pyricularia oryzae = conditions: disease control rating; foliar spray; host rice; 400 ppm (+++ at 100 ppm)
[2] = test system: Puccinia recondita tritici; experiment: Greenhouse Test 1, foliar spray fungicide screen: leaf rust; conditions: disease control rating, host wheat, 400 ppm (+++ at 100 ppm)
Botrytis cinerea = experiment: Greenhouse Test 1, foliar spray fungicide screen: gray mold; conditions: disease control rating, host grape berries, 400 ppm (+++ at 100 ppm)
[3] = test system: Pseudoperonospora cubensis; experiment: Greenhouse Test 1, foliar spray fungicide screen: downy mildew; conditions: disease control rating, host squash, 400 ppm (+++ at 100 ppm)
[4] = test system: Southern corn rootworm (Diabrotica undecimpuctata howardi Barber); experiment: Mite/insect screen: corn rootworm, treated soil; conditions: percent mortality, soil treatment; for mortality at 12 ppm: CRW rate 12.00 PPM; for mortality at 24 ppm: CRW rate 24.00 PPM
[5] = test system: southern armyworm (Spodopetra eridania Cramer); experiment: Mite/insect screen: southern armyworm on sprayed squash leaves; conditions: Spodoptera eridania, percent mortality, leaf spray, read-out: SAW RESULTS; for mortality at 200 ppm: rate 200 PPM; for mortality at 400 ppm: rate 400 PPM
[6] = test system: Twospotted spider mites (Tetranychus urticae Koch); experiment: Mite/insect screen: twospotted spider mites on sprayed squash cotyledons; conditions: percent mortality, leaf spray, read-out: SM RESULTS; for mortality at 200 ppm: rate 200 PPM; for mortality at 400 ppm: rate 400 PPM
[7] = test system: melon aphids (Aphis gossypii Glover); experiment: Mite/insect screen: melon aphids on sprayed squash cotyledons; conditions: percent mortality, leaf spray, read-out: MA RESULTS; for mortality at 200 ppm: rate 200 PPM; for mortality at 400 ppm: rate 400 PPM
Cercospora beticola = experiment: Greenhouse Test 1, foliar spray fungicide screen: leaf spot; conditions: disease control rating, host sugar beet, 400 ppm (+++ at 100 ppm)
Venturia inaequalis = experiment: Greenhouse Test 1, foliar spray fungicide screen: apple scab; conditions: disease control rating, host apple seedling, 400 ppm (+++ at 100 ppm)
Septoria tritici = experiment: Greenhouse Test 1, foliar spray fungicide screen: leaf blotch; conditions: disease control rating, host wheat, 400 ppm (+++ at 100 ppm)

With `CCOc1ccc(CCCOc2ccnc3cccnc23)cc1` [Example 6, 4-[3-(4-ethoxyphenyl)propoxy]-1,5-naphthyridine] the “POWD MDEW” value [1] was “- (- = 0-19% control at 400 ppm)”, the “RICE BLAST” value (Pyricularia oryzae) was “- (- = 0-19% control at 400 ppm)” and the “LEAF RUST” value [2] was “- (- = 0-19% control at 400 ppm)”. For the same compound, the “GRAY MOLD” value (Botrytis cinerea) was “- (- = 0-19% control at 400 ppm)”, the “DOWN MDEW” value [3] was “- (- = 0-19% control at 400 ppm)” and the mortality at 12 ppm [4] was 0%. The mortality at 24 ppm [4] was 0%, the mortality at 200 ppm [5] was 0% and the mortality at 400 ppm [5] was 0%. For the same compound, the mortality at 200 ppm [6] was 0%, the mortality at 400 ppm [6] was 0% and the mortality at 200 ppm [7] was 0%. For the same compound, the mortality at 400 ppm [7] was 0%.

`Fc1ccc(Oc2ccnc3ncccc23)cc1` [Example 1, 4-(4-fluorophenoxy)-1,8-naphthyridine] was tested, and the “POWD MDEW” value [1] was “+ (+ = 20-89% control at 400 ppm)”, the “RICE BLAST” value (Pyricularia oryzae) was “- (- = 0-19% control at 400 ppm)” and the “LEAF RUST” value [2] was “++ (++ = 90-100% control at 400 ppm)”. The “GRAY MOLD” value (Botrytis cinerea) was “- (- = 0-19% control at 400 ppm)”, the “DOWN MDEW” value [3] was “++ (++ = 90-100% control at 400 ppm)” and the mortality at 12 ppm [4] was 0%. It also gave a mortality at 24 ppm [4] of 0%, a mortality at 200 ppm [5] of 0% and a mortality at 400 ppm [5] of 0%. For the same compound, the mortality at 200 ppm [6] was 0%, the mortality at 400 ppm [6] was 0% and the mortality at 200 ppm [7] was 0%. It also gave a mortality at 400 ppm [7] of 0%.

`Fc1ccc(Oc2ccnc3ccncc23)cc1` [Example 3, 4-(4-fluorophenoxy)-1,6-naphthyridine] was tested, and the “POWD MDEW” value [1] was “- (- = 0-19% control at 400 ppm)”, the “RICE BLAST” value (Pyricularia oryzae) was “- (- = 0-19% control at 400 ppm)” and the “LEAF RUST” value [2] was “- (- = 0-19% control at 400 ppm)”. For the same compound, the “GRAY MOLD” value (Botrytis cinerea) was “- (- = 0-19% control at 400 ppm)”, the “DOWN MDEW” value [3] was “- (- = 0-19% control at 400 ppm)” and the mortality at 12 ppm [4] was 0%. The mortality at 24 ppm [4] was 0%, the mortality at 200 ppm [5] was 0% and the mortality at 400 ppm [5] was 0%. For the same compound, the mortality at 200 ppm [6] was 0%, the mortality at 400 ppm [6] was 0% and the mortality at 200 ppm [7] was 0%. The mortality at 400 ppm [7] was 0%.

With `Clc1ccccc1Oc1ccnc2ncccc12` [Example 8, 4-(2-chlorophenoxy)-1,8-naphthyridine] the “POWD MDEW” value [1] was “- (- = 0-19% control at 400 ppm)”, the “RICE BLAST” value (Pyricularia oryzae) was “+ (+ = 20-89% control at 400 ppm)” and the “LEAF RUST” value [2] was “+ (+ = 20-89% control at 400 ppm)”. For the same compound, the “GRAY MOLD” value (Botrytis cinerea) was “- (- = 0-19% control at 400 ppm)”, the “DOWN MDEW” value [3] was “++ (++ = 90-100% control at 400 ppm)” and the mortality at 12 ppm [4] was 0%. For the same compound, the mortality at 24 ppm [4] was 0%, the mortality at 200 ppm [5] was 0% and the mortality at 400 ppm [5] was 0%. It also gave a mortality at 200 ppm [6] of 0%, a mortality at 400 ppm [6] of 0% and a mortality at 200 ppm [7] of 0%. It also gave a mortality at 400 ppm [7] of 0%.

With `CC(C)(C)c1ccc(CCNc2ccnc3cccnc23)cc1` [Example 7, N-[2-[4-(t-butyl)phenyl]ethyl]-1,5-naphthyridin-4-amine] the “POWD MDEW” value [1] was “++ (++ = 90-100% control at 400 ppm)”, the “RICE BLAST” value (Pyricularia oryzae) was “++ (++ = 90-100% control at 400 ppm)” and the “LEAF RUST” value [2] was “+++ (+++ = 90-100% control at 100 ppm)”. The “GRAY MOLD” value (Botrytis cinerea) was “- (- = 0-19% control at 400 ppm)”, the “DOWN MDEW” value [3] was “+++ (+++ = 90-100% control at 100 ppm)” and the mortality at 12 ppm [4] was 0%. The mortality at 24 ppm [4] was 0%, the mortality at 200 ppm [5] was 0% and the mortality at 400 ppm [5] was 0%. The mortality at 200 ppm [6] was 90%, the mortality at 400 ppm [6] was 100% and the mortality at 200 ppm [7] was 90%. It also gave a mortality at 400 ppm [7] of 100%.

In the case of `CC(C)(C)c1ccc(CCOc2ccnc3cccnc23)cc1` [Example 5, 4-[2-[4-(t-butyl)phenyl]ethoxy]-1,5-naphthyridine], the “POWD MDEW” value [1] is reported as “+ (+ = 20-89% control at 400 ppm)”, the “RICE BLAST” value (Pyricularia oryzae) is reported as “++ (++ = 90-100% control at 400 ppm)” and the “LEAF RUST” value [2] is reported as “++ (++ = 90-100% control at 400 ppm)”. For the same compound, the “GRAY MOLD” value (Botrytis cinerea) was “- (- = 0-19% control at 400 ppm)”, the “DOWN MDEW” value [3] was “+++ (+++ = 90-100% control at 100 ppm)” and the mortality at 12 ppm [4] was 0%. For the same compound, the mortality at 24 ppm [4] was 0%, the mortality at 200 ppm [5] was 0% and the mortality at 400 ppm [5] was 0%. For the same compound, the mortality at 200 ppm [6] was 100%, the mortality at 400 ppm [6] was 100% and the mortality at 200 ppm [7] was 50%. For the same compound, the mortality at 400 ppm [7] was 80%.

With `c1ccc(CCNc2ccnc3cccnc23)cc1` [Example 10, N-(2-phenylethyl)-1,5-naphthyridin-4-amine] the “POWD MDEW” value [1] was “+ (+ = 20-89% control at 400 ppm)”, the “RICE BLAST” value (Pyricularia oryzae) was “+ (+ = 20-89% control at 400 ppm)” and the “LEAF RUST” value [2] was “+ (+ = 20-89% control at 400 ppm)”. The “GRAY MOLD” value (Botrytis cinerea) was “- (- = 0-19% control at 400 ppm)”, the “DOWN MDEW” value [3] was “+++ (+++ = 90-100% control at 100 ppm)” and the “LEAF SPOT” value (Cercospora beticola) was “+ (+ = 20-89% control at 400 ppm)”. The “APPL SCAB” value (Venturia inaequalis) was “+ (+ = 20-89% control at 400 ppm)”, the “LEAF BLOT” value (Septoria tritici) was “- (- = 0-19% control at 400 ppm)” and the mortality at 12 ppm [4] was 0%. It also gave a mortality at 200 ppm [5] of 0%, a mortality at 200 ppm [6] of 0% and a mortality at 200 ppm [7] of 0%.

With `CCOc1ccc(CCOc2ccnc3cccnc23)cc1` [Example 9, 4-[2-(4-ethoxyphenyl)ethoxy]-1,5-naphthyridine] the “POWD MDEW” value [1] was “+ (+ = 20-89% control at 400 ppm)”, the “RICE BLAST” value (Pyricularia oryzae) was “++ (++ = 90-100% control at 400 ppm)” and the “LEAF RUST” value [2] was “+++ (+++ = 90-100% control at 100 ppm)”. For the same compound, the “GRAY MOLD” value (Botrytis cinerea) was “- (- = 0-19% control at 400 ppm)”, the “DOWN MDEW” value [3] was “++ (++ = 90-100% control at 400 ppm)” and the mortality at 12 ppm [4] was 0%. For the same compound, the mortality at 24 ppm [4] was 0%, the mortality at 200 ppm [5] was 0% and the mortality at 400 ppm [5] was 0%. For the same compound, the mortality at 200 ppm [6] was 40%, the mortality at 400 ppm [6] was 80% and the mortality at 200 ppm [7] was 100%. For the same compound, the mortality at 400 ppm [7] was 100%.

With `Fc1ccc(Oc2ccnc3cccnc23)cc1` [Example 4, 4-(4-fluorophenoxy)-1,5-naphthyridine] the “POWD MDEW” value [1] was “+ (+ = 20-89% control at 400 ppm)”, the “RICE BLAST” value (Pyricularia oryzae) was “+ (+ = 20-89% control at 400 ppm)” and the “LEAF RUST” value [2] was “+ (+ = 20-89% control at 400 ppm)”. The “GRAY MOLD” value (Botrytis cinerea) was “- (- = 0-19% control at 400 ppm)”, the “DOWN MDEW” value [3] was “++ (++ = 90-100% control at 400 ppm)” and the mortality at 24 ppm [4] was 0%. The mortality at 400 ppm [5] was 0%, the mortality at 400 ppm [6] was 80% and the mortality at 400 ppm [7] was 80%.

For `Fc1ccc(Oc2ccnc3cnccc23)cc1` [Example 2, 4-(4-fluorophenoxy)-1,7-naphthyridine], the “POWD MDEW” value [1] was “+ (+ = 20-89% control at 400 ppm)”, the “RICE BLAST” value (Pyricularia oryzae) was “- (- = 0-19% control at 400 ppm)” and the “LEAF RUST” value [2] was “+ (+ = 20-89% control at 400 ppm)”. The “GRAY MOLD” value (Botrytis cinerea) was “- (- = 0-19% control at 400 ppm)”, the “DOWN MDEW” value [3] was “+ (+ = 20-89% control at 400 ppm)” and the mortality at 12 ppm [4] was 0%. For the same compound, the mortality at 24 ppm [4] was 0%, the mortality at 200 ppm [5] was 0% and the mortality at 400 ppm [5] was 0%. For the same compound, the mortality at 200 ppm [6] was 40%, the mortality at 400 ppm [6] was 0% and the mortality at 200 ppm [7] was 30%. For the same compound, the mortality at 400 ppm [7] was 0%.
